Test results taken from patent US20210070748A1, “INHIBITORS OF BRUTONS TYROSINE KINASE” (Pharmacyclics LLC, priority 2015, published 2021).
Read-outs that look alike come from different tables or passages of the source.

Assays:
Format in all cases: biochemical
BTK-WT = molecular target: T1, BTK-WT (Homo sapiens, UniProt Q06187); assay: Btk in vitro inhibitory activity (one of Method A TR-FRET, Method B electrophoretic mobility shift, Method C radiometric filter binding); conditions: read-out: BTK-WT (IC50)
T1 construct: purified from insect cells as a full-length construct containing an N-terminal 6X-His tag; His6 (N); made in house; host or cells: insect cells (baculovirus Sf21 in Method B)
T1 sequence (Q06187 whole entry): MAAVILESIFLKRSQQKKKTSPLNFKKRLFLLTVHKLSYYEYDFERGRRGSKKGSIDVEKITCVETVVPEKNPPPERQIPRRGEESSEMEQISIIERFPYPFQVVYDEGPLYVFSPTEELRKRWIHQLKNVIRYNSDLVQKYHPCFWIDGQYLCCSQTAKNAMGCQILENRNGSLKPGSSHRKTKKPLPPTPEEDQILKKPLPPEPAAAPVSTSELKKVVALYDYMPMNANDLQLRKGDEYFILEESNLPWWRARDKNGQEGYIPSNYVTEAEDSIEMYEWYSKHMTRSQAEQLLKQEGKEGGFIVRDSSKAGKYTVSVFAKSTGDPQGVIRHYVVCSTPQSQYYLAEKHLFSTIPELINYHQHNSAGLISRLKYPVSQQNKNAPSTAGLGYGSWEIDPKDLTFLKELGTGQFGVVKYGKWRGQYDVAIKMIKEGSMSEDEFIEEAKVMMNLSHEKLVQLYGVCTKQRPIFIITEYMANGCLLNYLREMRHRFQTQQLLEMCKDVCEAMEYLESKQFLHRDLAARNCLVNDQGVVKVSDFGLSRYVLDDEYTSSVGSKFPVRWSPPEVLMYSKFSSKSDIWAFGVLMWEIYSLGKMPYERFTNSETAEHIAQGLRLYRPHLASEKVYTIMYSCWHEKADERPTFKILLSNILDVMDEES

JAK3 = molecular target: T2, JAK3 (Homo sapiens, UniProt P52333); assay: Inhibition of a panel of kinases, in vitro HotSpot kinase assay: JAK3; conditions: 1 μM ATP, read-out: JAK3 (IC50)
T2 sequence (P52333 1-1124): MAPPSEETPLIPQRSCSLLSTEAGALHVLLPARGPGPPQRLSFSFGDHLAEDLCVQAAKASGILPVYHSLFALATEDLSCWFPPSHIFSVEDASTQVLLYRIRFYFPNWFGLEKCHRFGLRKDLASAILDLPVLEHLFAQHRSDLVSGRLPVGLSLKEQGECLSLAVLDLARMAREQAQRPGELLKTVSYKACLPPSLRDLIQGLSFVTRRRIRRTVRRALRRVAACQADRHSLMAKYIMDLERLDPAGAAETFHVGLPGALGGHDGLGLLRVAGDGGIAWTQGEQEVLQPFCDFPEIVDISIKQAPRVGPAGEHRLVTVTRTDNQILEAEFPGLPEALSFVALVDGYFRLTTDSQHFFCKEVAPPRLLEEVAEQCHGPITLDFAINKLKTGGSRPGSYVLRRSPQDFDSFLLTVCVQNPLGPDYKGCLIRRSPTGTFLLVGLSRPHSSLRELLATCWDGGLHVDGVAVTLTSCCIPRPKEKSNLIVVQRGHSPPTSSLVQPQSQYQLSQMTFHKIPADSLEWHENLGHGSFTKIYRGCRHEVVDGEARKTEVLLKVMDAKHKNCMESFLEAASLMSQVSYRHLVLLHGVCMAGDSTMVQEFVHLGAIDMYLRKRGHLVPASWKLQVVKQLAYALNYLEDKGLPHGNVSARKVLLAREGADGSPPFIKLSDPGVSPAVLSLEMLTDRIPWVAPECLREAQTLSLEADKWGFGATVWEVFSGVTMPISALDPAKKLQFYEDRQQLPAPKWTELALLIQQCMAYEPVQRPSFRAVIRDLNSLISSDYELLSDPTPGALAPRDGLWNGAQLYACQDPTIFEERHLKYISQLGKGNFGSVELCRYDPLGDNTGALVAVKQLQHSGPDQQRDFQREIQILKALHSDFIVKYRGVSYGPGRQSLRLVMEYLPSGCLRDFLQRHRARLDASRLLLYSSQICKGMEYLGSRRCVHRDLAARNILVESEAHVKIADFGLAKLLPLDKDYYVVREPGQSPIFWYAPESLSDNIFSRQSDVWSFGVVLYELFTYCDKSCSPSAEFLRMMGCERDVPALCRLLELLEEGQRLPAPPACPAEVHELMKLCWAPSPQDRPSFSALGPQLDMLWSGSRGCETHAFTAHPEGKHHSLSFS

LCK = LCK (Homo sapiens, UniProt P06239); assay: Inhibition of a panel of kinases, in vitro HotSpot kinase assay: LCK; conditions: 1 μM ATP, read-out: LCK (IC50)
Sequence of LCK (P06239 whole entry): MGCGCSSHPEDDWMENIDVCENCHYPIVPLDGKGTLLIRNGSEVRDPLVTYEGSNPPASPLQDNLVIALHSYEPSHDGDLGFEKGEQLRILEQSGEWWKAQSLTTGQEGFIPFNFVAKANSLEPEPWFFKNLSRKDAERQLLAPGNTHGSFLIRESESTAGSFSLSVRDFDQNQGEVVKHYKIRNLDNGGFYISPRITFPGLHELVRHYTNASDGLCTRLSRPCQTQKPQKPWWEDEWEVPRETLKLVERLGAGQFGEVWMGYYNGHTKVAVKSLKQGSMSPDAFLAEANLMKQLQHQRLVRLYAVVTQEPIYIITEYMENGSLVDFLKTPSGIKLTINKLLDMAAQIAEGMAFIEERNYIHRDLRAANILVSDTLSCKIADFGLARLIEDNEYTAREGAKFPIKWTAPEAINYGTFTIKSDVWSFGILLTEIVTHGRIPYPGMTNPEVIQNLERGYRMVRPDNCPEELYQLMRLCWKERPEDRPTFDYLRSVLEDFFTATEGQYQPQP

Structure (SMILES) | IC50 (BTK-WT; Table 10, Formula A-I) | IC50 (JAK3; Table 10, Formula A-I) | IC50 (LCK; Table 10, Formula A-I) | IC50 (BTK-WT; Table 11, Formula B-I) | IC50 (JAK3; Table 11, Formula B-I) | IC50 (LCK; Table 11, Formula B-I)
Cc1cc(Nc2nc(N3CC[C@@H](NC(=O)c4ccccc4)C3)cnc2C(N)=O)sn1 [Example A-50, 5-[(3R)-3-benzamidopyrrolidin-1-yl]-3-[(3-methyl-1,2-thiazol-5-yl)amino]pyrazine-2-carboxamide] | 100 to 1000 nM | > 10000 nM | 1000 to 10000 nM | – | – | –
Cc1cc(Nc2nc(N3CC[C@@H](NC(=O)N(C)C)C3)cnc2C(N)=O)sn1 [Example A-51, 5-[(3R)-3-[(dimethylcarbamoyl)amino]pyrrolidin-1-yl]-3-[(3-methyl-1,2-thiazol-5-yl)amino]pyrazine-2-carboxamide] | 1000 to 10000 nM | > 10000 nM | > 10000 nM | – | – | –
Cc1cc(Nc2nc(N3CCC[C@@H](N4CCN(c5cccc(Cl)c5)C4=O)C3)cnc2C(N)=O)sn1 [Example A-52, 5-[(3R)-3-[3-(3-chlorophenyl)-2-oxoimidazolidin-1-yl]piperidin-1-yl]-3-[(3-methyl-1,2-thiazol-5-yl)amino]pyrazine-2-carboxamide] | ≤ 100 nM | 100 to 1000 nM | < 100 nM | – | – | –
CS(=O)(=O)c1ccc(Nc2nc(N3CCC[C@@H](N4CCN(c5cccc(Cl)c5)C4=O)C3)cnc2C(N)=O)cc1 [Example A-53, 5-[(3R)-3-[3-(3-chlorophenyl)-2-oxoimidazolidin-1-yl]piperidin-1-yl]-3-[(4-methanesulfonylphenyl)amino]pyrazine-2-carboxamide] | ≤ 100 nM | 1000 to 10000 nM | < 100 nM | – | – | –
Cc1cc(Nc2nc(N3CCC[C@H](NC(=O)c4ccc(N(C)C)cc4)[C@@H]3C)cnc2C(N)=O)sn1 [Example A-54, 5-[(2S,3S)-3-[4-(dimethylamino)benzamido]-2-methylpiperidin-1-yl]-3-[(3-methyl-1,2-thiazol-5-yl)amino]pyrazine-2-carboxamide] | ≤ 100 nM | 1000 to 10000 nM | 100 to 1000 nM | – | – | –
Cc1cc(Nc2nc(N3CCC[C@H](NC(=O)N(C)C)[C@@H]3C)cnc2C(N)=O)sn1 [Example A-58, 5-[(2S,3S)-3-[(dimethylcarbamoyl)amino]-2-methylpiperidin-1-yl]-3-[(3-methyl-1,2-thiazol-5-yl)amino]pyrazine-2-carboxamide] | ≤ 100 nM | 1000 to 10000 nM | 1000 to 10000 nM | – | – | –
C[C@@H]1[C@H](NC(=O)N(C)C)CCCN1c1cnc(C(N)=O)c(Nc2ccc3ncccc3c2)n1 [Example A-59, 5-[(2R,3R)-3-[(dimethylcarbamoyl)amino]-2-methylpiperidin-1-yl]-3-[(quinolin-6-yl)amino]pyrazine-2-carboxamide] | ≤ 100 nM | 1000 to 10000 nM | 100 to 1000 nM | – | – | –
C[C@H]1[C@@H](NC(=O)N(C)C)CCCN1c1cnc(C(N)=O)c(Nc2ccc3ncccc3c2)n1 [Example A-60, 5-[(2S,3S)-3-[(dimethylcarbamoyl)amino]-2-methylpiperidin-1-yl]-3-[(quinolin-6-yl)amino]pyrazine-2-carboxamide] | 100 to 1000 nM | 1000 to 10000 nM | > 10000 nM | – | – | –
Cc1cc(Nc2cc(N3CCC[C@@H](NC(=O)c4ccccc4)C3)cnc2C(N)=O)sn1 [Example A-61, 5-[(3R)-3-benzamidopiperidin-1-yl]-3-[(3-methyl-1,2-thiazol-5-yl)amino]pyridine-2-carboxamide] | 100 to 1000 nM | 1000 to 10000 nM | 100 to 1000 nM | – | – | –
Cc1cc(Nc2cc(N3CCC[C@@H](NC(=O)c4ccc(N(C)C)cc4)C3)cnc2C(N)=O)sn1 [Example A-62, 5-[(3R)-3-[4-(dimethylamino)benzamido]piperidin-1-yl]-3-[(3-methyl-1,2-thiazol-5-yl)amino]pyridine-2-carboxamide] | ≤ 100 nM | > 10000 nM | > 10000 nM | – | – | –
Cc1cc(Nc2cc(N3CCC[C@@H](NC(=O)N(C)C)C3)cnc2C(N)=O)sn1 [Example A-64, 5-[(3R)-3-[(dimethylcarbamoyl)amino]piperidin-1-yl]-3-[(3-methyl-1,2-thiazol-5-yl)amino]pyridine-2-carboxamide] | 100 to 1000 nM | 1000 to 10000 nM | > 10000 nM | – | – | –
Cc1cc(Nc2nc(N3CCC(CNC(=O)N(C)C)CC3)cnc2C(N)=O)sn1 [Example A-75, 5-(4-{[(dimethylcarbamoyl)amino]methyl}piperidin-1-yl)-3-[(3-methyl-1,2-thiazol-5-yl)amino]pyrazine-2-carboxamide] | ≤ 100 nM | < 100 nM | 100 to 1000 nM | – | – | –
Cc1cc(Nc2nc(N3CCC(CNC(=O)c4ccccc4)CC3)cnc2C(N)=O)sn1 [Example A-76, 3-[(3-methyl-1,2-thiazol-5-yl)amino]-5-{4-[(phenylformamido)methyl]piperidin-1-yl}pyrazine-2-carboxamide] | ≤ 100 nM | < 100 nM | 100 to 1000 nM | – | – | –
Cc1cc(Nc2nc(N3CCC(CNC(=O)c4ccc(N(C)C)cc4)CC3)cnc2C(N)=O)sn1 [Example A-77, 5-[4-({[4-(dimethylamino)phenyl]formamido}methyl)piperidin-1-yl]-3-[(3-methyl-1,2-thiazol-5-yl)amino]pyrazine-2-carboxamide] | ≤ 100 nM | < 100 nM | 100 to 1000 nM | – | – | –
C=CC(=O)N[C@@H]1CCCN(c2cnc(C(N)=O)c(Nc3ccc(C4CCN(C5CCCC5)CC4)cc3)n2)C1 [Example A-84, (R)-5-(3-acrylamidopiperidin-1-yl)-3-(4-(1-cyclopentylpiperidin-4-yl)phenylamino)pyrazine-2-carboxamide] | ≤ 100 nM | < 100 nM | < 100 nM | – | – | –
C=CC(=O)N[C@@H]1CCCN(c2cnc(C(N)=O)c(Nc3ccc(C4CCN(C5CCCC5)CC4)cc3)n2)[C@@H]1C [Example A-85, 5-((2R,3R)-3-acrylamido-2-methylpiperidin-1-yl)-3-(4-(1-cyclopentylpiperidin-4-yl)phenylamino)pyrazine-2-carboxamide] | ≤ 100 nM | < 100 nM | < 100 nM | – | – | –
Cc1cc(Nc2nc(N[C@H]3CC[C@H](NC(=O)c4ccc(N(C)C)cc4)CC3)cnc2C(N)=O)sn1 [Example B-1, 3-[(3-methyl-1,2-thiazol-5-yl)amino]-5-{[(1r,4r)-4-[4-(dimethylamino)benzamido]cyclohexyl]amino}pyrazine-2-carboxamide] | – | – | – | ≤ 100 nM | 100 to 1000 nM | < 100 nM
Cc1cc(Nc2nc(NC3CCC(NC(=O)c4ccc(N(C)C)cc4)CC3)cnc2C(N)=O)sn1 (stereo not drawn) [Example B-5, 5-({4-[4-(dimethylamino)benzamido]cyclohexyl}amino)-3-[(3-methyl-1,2-thiazol-5-yl)amino]pyrazine-2-carboxamide] | – | – | – | ≤ 100 nM | < 100 nM | 100 to 1000 nM
CN1CCN(C(=O)c2ccc(Nc3nc(NC4CCC(NC(=O)N(C)C)CC4)cnc3C(N)=O)cc2)CC1 (stereo not drawn) [Example B-13, 5-(4-(3,3-dimethylureido)cyclo-hexylamino)-3-(4-(4-methylpiperazine-1-carbonyl)phenylamino) pyrazine-2-carboxamide] | – | – | – | ≤ 100 nM | 100 to 1000 nM | < 100 nM
CN1CCN(C(=O)c2ccc(Nc3nc(N[C@H]4CC[C@H](NC(=O)c5ccc(C6CC6)cc5F)CC4)cnc3C(N)=O)cc2)CC1 [Example B-14, 5-((1r,4r)-4-(4-cyclo-propyl-2-fluoro-benzamido)cyclohexyl-amino)-3-(4-(4-methylpiperazine-1-carbonyl)phenylamino) pyrazine-2-carboxamide] | – | – | – | ≤ 100 nM | 100 to 1000 nM | 100 to 1000 nM
CN1CCN(C(=O)c2ccc(Nc3nc(NC4CCC(NC(=O)c5ccc(C6CC6)cc5F)CC4)cnc3C(N)=O)cc2)CC1 (stereo not drawn) [Example B-15, 5-(4-(4-cyclopropyl-2-fluoro-benzamido)cyclohexyl-amino)-3-(4-(4-methylpiperazine-1-carbonyl)phenylamino) pyrazine-2-carboxamide] | – | – | – | ≤ 100 nM | < 100 nM | < 100 nM
